Laboratory results published in ChEMBL document CHEMBL1130465, “Peptidic prodrugs of novel aminomethyl-THF 1-methylcarbapenems” (1997).
≈ marks a conversion by molar mass, not a printed value.

Columns and labels:
Assay type in all cases: functional
Mus musculus [1] = assay: Tested for oral activity against Staphylococcus aureus smith infection in mice after single subcutaneous dose(SSC)
Escherichia coli [2] = assay: In vitro antimicrobial activity against Escherichia coli GC 2205 strain
Enterobacter cloacae = assay: In vitro antimicrobial activity against Enterobacter cloacae GC 2209 strain
Enterococcus faecium = assay: In vitro antimicrobial activity against Enterococcus faecium GC 1182 strain
Staphylococcus aureus [3] = assay: In vitro antimicrobial activity against Staphylococcus aureus GC 2220 strain
Escherichia coli [4] = assay: In vitro antimicrobial activity against Escherichia coli GC 1792 strain
Pseudomonas aeruginosa [5] = assay: In vitro antimicrobial activity against Pseudomonas aeruginosa GC 1544 strain
Morganella morganii = assay: In vitro antimicrobial activity against Morganella morganii GC 2213 strain
Pseudomonas aeruginosa [6] = assay: In vitro antimicrobial activity against Pseudomonas aeruginosa ATCC 27853 strain
Mus musculus [7] = assay: Tested for oral activity against Staphylococcus aureus smith infection in mice after single oral dose(SOD)
Staphylococcus aureus [8] = assay: In vitro antimicrobial activity against Staphylococcus aureus ATCC 29213 strain
[9] = Ratio of ED50 of single oral dose to ED50 of single subcutaneous dose against Staphylococcus aureus smith infection in mice
Enterococcus faecalis = assay: In vitro antimicrobial activity against Enterococcus faecalis GC 842 strain
Mus musculus [10] = species: Mus musculus; assay: animal or person
Description: Tested for oral activity against Escherichia coli #311 infection in mice after single oral dose(SOD)

Escherichia coli [11] = assay: In vitro antimicrobial activity against Escherichia coli ATCC 25922 strain
[12] = tested on: Acinetobacter calcoaceticus; assay: In vitro antimicrobial activity against Acinetobacter calcoaceticus GC 756 strain
Citrobacter freundii = assay: In vitro antimicrobial activity against Citrobacter freundii GC 2211 strain
[13] = tested on: Stenotrophomonas maltophilia; assay: In vitro antimicrobial activity against Xanthomonas maltophilia GC 562 strain
Mus musculus [14] = species: Mus musculus; assay: animal or person; remark: listed apart in the source
Description: Tested for oral activity against Escherichia coli #311 infection in mice after single subcutaneous dose(SSC)

Mus musculus [15] = assay: Tested for oral activity against Staphylococcus aureus smith infection in mice after single subcutaneous dose(SSC); 0.42-0.83
[16] = Ratio of ED50 of single oral dose to ED50 of single subcutaneous dose against Staphylococcus aureus smith infection in mice; 16-8
[17] = Enterococcus faecium, read-out: MIC
[18] = Staphylococcus aureus, read-out: MIC
[19] = Escherichia coli, read-out: MIC
[20] = Pseudomonas aeruginosa, read-out: MIC
[21] = Morganella morganii, read-out: MIC
[22] = Pseudomonas aeruginosa, ATCC 27853, read-out: MIC
[23] = Mus musculus, po, read-out: ED50
[24] = Enterococcus faecalis, read-out: MIC
[25] = Acinetobacter calcoaceticus, read-out: MIC
[26] = Citrobacter freundii, read-out: MIC

Row | Compound | ED50 (Mus musculus [1]; Mus musculus, read-out: ED50) [mg/kg] | MIC (Escherichia coli [2]) [µg/mL] | MIC (Enterobacter cloacae) [µg/mL] | MIC (Enterococcus faecium; [17]) [µg/mL] | MIC (Staphylococcus aureus [3]; [18]) [µg/mL] | MIC (Escherichia coli [4]; [19]) [µg/mL] | MIC (Pseudomonas aeruginosa [5]; [20]) [µg/mL] | MIC (Morganella morganii; [21]) [µg/mL] | MIC (Pseudomonas aeruginosa [6]; [22]) [µg/mL] | ED50 (Mus musculus [7]; [23]) [mg/kg] | MIC (Staphylococcus aureus [8]) [µg/mL] | Ratio [9] | MIC (Enterococcus faecalis; [24]) [µg/mL] | MIC (Escherichia coli [11]) [µg/mL] | MIC [12, 25] [µg/mL] | MIC (Citrobacter freundii; [26]) [µg/mL] | MIC [13] [µg/mL] | further results
1 | C[C@H]1C(S[C@@H]2CCO[C@@H]2CNC(=O)CN)=C(C(=O)O)N2C(=O)[C@H]([C@@H](C)O)C12 (some centres undefined) | 0.15 | < 0.06 | < 0.06 | > 128 | 8 (≈ 20 µM) | < 0.06 | 64 (≈ 160 µM) | 0.5 (≈ 1.25 µM) | 8 (≈ 20 µM) | 0.41 | 0.12 (≈ 0.3 µM) | 2.7 | 2 (≈ 5.01 µM) | < 0.06 | 8 (≈ 20 µM) | 0.5 (≈ 1.25 µM) | > 128 | ED50 (Mus musculus [10]; [23]): 1.4 mg/kg; ED50 (Mus musculus [14]; Mus musculus, read-out: ED50): 0.56 mg/kg
2 | C[C@H]1C(SC2COC(CN)C2)=C(C(=O)O)N2C(=O)[C@H]([C@@H](C)O)C12 (stereo in doubt; cis) |  |  |  |  |  |  |  |  |  |  |  | 22 |  |  |  |  |  | ED50 (Mus musculus [1]): 0.05 mg/kg; MIC (Enterococcus faecium): 128 µg/mL (≈ 374 µM); MIC (Staphylococcus aureus [3]): 4 µg/mL (≈ 11.7 µM); MIC (Escherichia coli [4]): <0.06 µg/mL; MIC (Pseudomonas aeruginosa [5]): 16 µg/mL (≈ 46.7 µM); MIC (Morganella morganii): 0.5 µg/mL (≈ 1.46 µM); MIC (Pseudomonas aeruginosa [6]): 8 µg/mL (≈ 23.4 µM); ED50 (Mus musculus [7]): 1.1 mg/kg; MIC (Enterococcus faecalis): 2 µg/mL (≈ 5.84 µM); ED50 (Mus musculus [10]): 3.5 mg/kg; MIC [12]: 20 µg/mL (≈ 58.4 µM); MIC (Citrobacter freundii): <0.06 µg/mL; ED50 (Mus musculus [14]): 0.28 mg/kg
3 | C[C@H]1C(S[C@@H]2COC[C@@H]2CN)=C(C(=O)O)N2C(=O)[C@H]([C@@H](C)O)C12 (some centres undefined) |  | 0.12 (≈ 0.35 µM) | 0.12 (≈ 0.35 µM) | > 128 | 16 (≈ 46.7 µM) | 0.12 (≈ 0.35 µM) | 32 (≈ 93.5 µM) | 2 (≈ 5.84 µM) | 16 (≈ 46.7 µM) |  | 0.12 (≈ 0.35 µM) |  | 8 (≈ 23.4 µM) | 0.12 (≈ 0.35 µM) | 16 (≈ 46.7 µM) | 0.5 (≈ 1.46 µM) | > 128 | 
4 | C[C@H]1C(S[C@@H]2CCO[C@@H]2CNC(=O)[C@H](N)Cc2ccccc2)=C(C(=O)O)N2C(=O)[C@H]([C@@H](C)O)C12 (some centres undefined) | 0.06 | 0.03 (≈ 0.0613 µM) | 4 (≈ 8.17 µM) | 128 (≈ 261 µM) | 4 (≈ 8.17 µM) | 0.5 (≈ 1.02 µM) | 128 (≈ 261 µM) | 4 (≈ 8.17 µM) | 64 (≈ 131 µM) | 0.28 | 0.25 (≈ 0.511 µM) | 4.7 | 1 (≈ 2.04 µM) | 0.25 (≈ 0.511 µM) | 64 (≈ 131 µM) | 8 (≈ 16.3 µM) | > 128 | ED50 (Mus musculus [10]; [23]): 1.2 mg/kg; ED50 (Mus musculus [14]; Mus musculus, read-out: ED50): 0.48 mg/kg
5 | C[C@@H](O)[C@H]1C(=O)N2C(C(=O)O)=C(SCCNC=N)C[C@H]12.O [IMIPENEM] |  | 0.12 | < 0.06 | 64 | 1 | < 0.06 | 16 | 1 | 1 |  | < 0.06 |  | 1 | 0.12 | 0.25 | 0.25 | > 128 | 
6 | C[C@H](N)C(=O)NC[C@H]1OCC[C@H]1SC1=C(C(=O)O)N2C(=O)[C@H]([C@@H](C)O)C2[C@H]1C (some centres undefined) |  | < 0.06 | 0.25 (≈ 0.605 µM) | > 128 | 8 (≈ 19.3 µM) | 0.12 (≈ 0.29 µM) | 64 (≈ 155 µM) | 1 (≈ 2.42 µM) | 64 (≈ 155 µM) | 6.6 | < 0.06 |  | 2 (≈ 4.84 µM) | < 0.06 | 8 (≈ 19.3 µM) | 1 (≈ 2.42 µM) | > 128 | ED50 (Mus musculus [15]): 0.42 mg/kg; Ratio [16]: >16
7 | C[C@@H](N)C(=O)NC[C@H]1COC[C@H]1SC1=C(C(=O)O)N2C(=O)[C@H]([C@@H](C)O)C2[C@H]1C (some centres undefined) | 0.11 | < 0.06 | 0.25 (≈ 0.605 µM) | 128 (≈ 310 µM) | 32 (≈ 77.4 µM) | < 0.06 | 32 (≈ 77.4 µM) | 1 (≈ 2.42 µM) | 8 (≈ 19.3 µM) | 4 | 0.5 (≈ 1.21 µM) | 36 | 2 (≈ 4.84 µM) | < 0.06 | 8 (≈ 19.3 µM) | 2 (≈ 4.84 µM) | > 128 | 
